The target in the experiment is Mitogen-activated protein kinase kinase kinase 7 (TAK1/MAP3K7) (Homo sapiens) (UniProt O43318). Briefly: Inhibition of human TAK1 using ATP as substrate.

pIC50: −log10 of the molar value.

What is called pIC50 is the IC50 on a negative log10 scale, so that one unit is a factor of ten. A high value points to a low IC50.

Sequence of Mitogen-activated protein kinase kinase kinase 7 (TAK1/MAP3K7) (Homo sapiens) (O43318 whole entry, looked up): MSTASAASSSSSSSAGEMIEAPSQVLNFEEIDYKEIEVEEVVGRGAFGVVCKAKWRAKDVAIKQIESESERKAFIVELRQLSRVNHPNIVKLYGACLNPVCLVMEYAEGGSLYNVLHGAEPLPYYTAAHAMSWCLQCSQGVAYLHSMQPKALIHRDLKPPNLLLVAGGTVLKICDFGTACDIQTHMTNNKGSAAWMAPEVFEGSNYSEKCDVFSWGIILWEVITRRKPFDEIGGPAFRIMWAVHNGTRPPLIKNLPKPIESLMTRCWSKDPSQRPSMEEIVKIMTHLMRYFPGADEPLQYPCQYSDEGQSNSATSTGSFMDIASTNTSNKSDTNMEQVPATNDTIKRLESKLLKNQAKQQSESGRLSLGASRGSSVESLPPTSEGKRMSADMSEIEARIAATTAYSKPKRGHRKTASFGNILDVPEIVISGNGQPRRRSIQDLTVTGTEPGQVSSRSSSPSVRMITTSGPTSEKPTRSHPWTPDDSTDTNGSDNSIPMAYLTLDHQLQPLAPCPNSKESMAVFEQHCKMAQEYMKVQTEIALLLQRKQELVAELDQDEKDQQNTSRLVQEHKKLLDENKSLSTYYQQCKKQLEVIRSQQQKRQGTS

`CC(C)Cn1c2ccc(Nc3ncccn3)cc2c2c3c(c4c(c21)CCc1nn(C)cc1-4)C(=O)NC3` [CEP-11981] had a pIC50 of 7.85.

For the origin of these results see BindingDB's records for doi:10.1021/jm201449n (Cephalon, 2012).
